According to the kinase profiling compilation of Christmann-Franck et al. (2016):

Key:
Assay in all cases: KINOMEscan competition binding
Details in all cases: compound 10.0 µM
[1] = system: ABL1 (human), P00519 [M351T]
ABL2 (human) = ABL2 (human) (UniProt P42684)
AXL (human) = AXL (human) (UniProt P30530)
BLK (human) = BLK (human) (UniProt P51451)
BMPR1B (human) = BMPR1B (human) (UniProt O00238)
BRSK2 (human) = BRSK2 (human) (UniProt Q8IWQ3)
CDK9 (human) = CDK9 (human) (UniProt P50750)
CIT (human) = CIT (human) (UniProt O14578)
CLK3 (human) = CLK3 (human) (UniProt P49761)
Sequence of CLK3 (human) (P49761 whole entry, looked up): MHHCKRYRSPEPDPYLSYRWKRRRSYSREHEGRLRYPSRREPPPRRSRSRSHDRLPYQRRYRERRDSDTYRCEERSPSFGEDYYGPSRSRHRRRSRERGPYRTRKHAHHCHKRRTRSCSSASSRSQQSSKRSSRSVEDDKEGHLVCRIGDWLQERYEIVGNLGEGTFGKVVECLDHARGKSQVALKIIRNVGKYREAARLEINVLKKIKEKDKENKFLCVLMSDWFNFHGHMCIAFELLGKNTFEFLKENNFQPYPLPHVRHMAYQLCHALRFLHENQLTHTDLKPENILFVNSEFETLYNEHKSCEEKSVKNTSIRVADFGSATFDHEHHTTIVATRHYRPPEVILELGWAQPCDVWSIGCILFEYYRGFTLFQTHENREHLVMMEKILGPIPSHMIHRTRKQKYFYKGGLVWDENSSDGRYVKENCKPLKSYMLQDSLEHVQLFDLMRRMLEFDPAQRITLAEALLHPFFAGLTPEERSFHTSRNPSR

CSNK1G2 (human) = CSNK1G2 (human) (UniProt P78368)
EPHA3 (human) = EPHA3 (human) (UniProt P29320)
ERBB2 (human) = ERBB2 (human) (UniProt P04626)
Sequence of ERBB2 (human) (P04626 whole entry, looked up): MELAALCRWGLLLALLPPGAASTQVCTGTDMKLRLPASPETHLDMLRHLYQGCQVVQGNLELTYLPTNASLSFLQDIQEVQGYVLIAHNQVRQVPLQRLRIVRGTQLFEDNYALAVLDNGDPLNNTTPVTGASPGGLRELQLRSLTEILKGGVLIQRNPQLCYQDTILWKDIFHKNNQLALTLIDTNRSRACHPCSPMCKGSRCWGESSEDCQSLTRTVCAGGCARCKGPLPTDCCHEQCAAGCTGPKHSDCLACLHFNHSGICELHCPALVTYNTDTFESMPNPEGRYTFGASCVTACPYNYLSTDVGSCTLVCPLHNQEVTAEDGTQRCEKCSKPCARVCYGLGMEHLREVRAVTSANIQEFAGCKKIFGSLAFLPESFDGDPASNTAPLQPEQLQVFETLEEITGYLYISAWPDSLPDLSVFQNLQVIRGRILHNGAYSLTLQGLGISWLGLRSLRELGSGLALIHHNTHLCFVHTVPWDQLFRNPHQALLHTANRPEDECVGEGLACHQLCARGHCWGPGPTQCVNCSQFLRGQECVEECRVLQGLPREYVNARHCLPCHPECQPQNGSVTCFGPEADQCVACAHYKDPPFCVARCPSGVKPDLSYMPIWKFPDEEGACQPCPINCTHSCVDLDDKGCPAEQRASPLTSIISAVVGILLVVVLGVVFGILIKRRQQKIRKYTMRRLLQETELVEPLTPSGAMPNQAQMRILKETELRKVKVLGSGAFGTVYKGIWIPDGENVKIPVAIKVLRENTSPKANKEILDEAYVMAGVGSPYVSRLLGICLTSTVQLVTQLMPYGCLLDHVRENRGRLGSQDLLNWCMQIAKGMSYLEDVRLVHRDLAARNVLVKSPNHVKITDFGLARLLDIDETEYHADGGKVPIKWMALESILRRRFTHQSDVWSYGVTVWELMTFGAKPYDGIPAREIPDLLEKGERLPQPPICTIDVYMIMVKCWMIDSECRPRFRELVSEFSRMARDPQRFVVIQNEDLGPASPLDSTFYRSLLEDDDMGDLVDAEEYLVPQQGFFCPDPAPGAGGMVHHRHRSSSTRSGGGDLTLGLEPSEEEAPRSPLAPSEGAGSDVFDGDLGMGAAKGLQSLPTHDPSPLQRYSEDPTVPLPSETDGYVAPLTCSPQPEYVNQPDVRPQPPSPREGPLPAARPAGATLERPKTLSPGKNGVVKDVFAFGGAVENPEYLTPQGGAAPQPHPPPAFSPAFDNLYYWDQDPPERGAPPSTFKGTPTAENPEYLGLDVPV

GAK (human) = GAK (human) (UniProt O14976)
HCK (human) = HCK (human) (UniProt P08631)
Sequence of HCK (human) (P08631 whole entry, looked up): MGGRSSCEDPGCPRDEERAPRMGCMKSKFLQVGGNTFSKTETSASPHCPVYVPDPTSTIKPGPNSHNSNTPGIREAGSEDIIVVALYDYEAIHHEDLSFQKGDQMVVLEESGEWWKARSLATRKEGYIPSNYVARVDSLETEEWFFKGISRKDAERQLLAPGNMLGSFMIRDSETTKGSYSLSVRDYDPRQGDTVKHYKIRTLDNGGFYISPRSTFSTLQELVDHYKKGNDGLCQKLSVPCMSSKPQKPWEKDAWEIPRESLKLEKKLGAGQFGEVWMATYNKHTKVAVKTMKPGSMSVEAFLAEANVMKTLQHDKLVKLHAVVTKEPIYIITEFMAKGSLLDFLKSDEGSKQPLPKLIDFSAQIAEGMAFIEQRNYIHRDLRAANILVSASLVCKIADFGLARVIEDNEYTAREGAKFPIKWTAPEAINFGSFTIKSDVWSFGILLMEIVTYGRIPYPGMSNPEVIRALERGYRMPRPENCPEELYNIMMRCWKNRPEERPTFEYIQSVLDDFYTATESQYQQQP

INSRR (human) = INSRR (human) (UniProt P14616)
IRAK3 (human) = IRAK3 (human) (UniProt Q9Y616)
MAP2K2 (human) = MAP2K2 (human) (UniProt P36507)
MAP4K4 (human) = MAP4K4 (human) (UniProt O95819)
Sequence of MAP4K4 (human) (O95819 whole entry, looked up): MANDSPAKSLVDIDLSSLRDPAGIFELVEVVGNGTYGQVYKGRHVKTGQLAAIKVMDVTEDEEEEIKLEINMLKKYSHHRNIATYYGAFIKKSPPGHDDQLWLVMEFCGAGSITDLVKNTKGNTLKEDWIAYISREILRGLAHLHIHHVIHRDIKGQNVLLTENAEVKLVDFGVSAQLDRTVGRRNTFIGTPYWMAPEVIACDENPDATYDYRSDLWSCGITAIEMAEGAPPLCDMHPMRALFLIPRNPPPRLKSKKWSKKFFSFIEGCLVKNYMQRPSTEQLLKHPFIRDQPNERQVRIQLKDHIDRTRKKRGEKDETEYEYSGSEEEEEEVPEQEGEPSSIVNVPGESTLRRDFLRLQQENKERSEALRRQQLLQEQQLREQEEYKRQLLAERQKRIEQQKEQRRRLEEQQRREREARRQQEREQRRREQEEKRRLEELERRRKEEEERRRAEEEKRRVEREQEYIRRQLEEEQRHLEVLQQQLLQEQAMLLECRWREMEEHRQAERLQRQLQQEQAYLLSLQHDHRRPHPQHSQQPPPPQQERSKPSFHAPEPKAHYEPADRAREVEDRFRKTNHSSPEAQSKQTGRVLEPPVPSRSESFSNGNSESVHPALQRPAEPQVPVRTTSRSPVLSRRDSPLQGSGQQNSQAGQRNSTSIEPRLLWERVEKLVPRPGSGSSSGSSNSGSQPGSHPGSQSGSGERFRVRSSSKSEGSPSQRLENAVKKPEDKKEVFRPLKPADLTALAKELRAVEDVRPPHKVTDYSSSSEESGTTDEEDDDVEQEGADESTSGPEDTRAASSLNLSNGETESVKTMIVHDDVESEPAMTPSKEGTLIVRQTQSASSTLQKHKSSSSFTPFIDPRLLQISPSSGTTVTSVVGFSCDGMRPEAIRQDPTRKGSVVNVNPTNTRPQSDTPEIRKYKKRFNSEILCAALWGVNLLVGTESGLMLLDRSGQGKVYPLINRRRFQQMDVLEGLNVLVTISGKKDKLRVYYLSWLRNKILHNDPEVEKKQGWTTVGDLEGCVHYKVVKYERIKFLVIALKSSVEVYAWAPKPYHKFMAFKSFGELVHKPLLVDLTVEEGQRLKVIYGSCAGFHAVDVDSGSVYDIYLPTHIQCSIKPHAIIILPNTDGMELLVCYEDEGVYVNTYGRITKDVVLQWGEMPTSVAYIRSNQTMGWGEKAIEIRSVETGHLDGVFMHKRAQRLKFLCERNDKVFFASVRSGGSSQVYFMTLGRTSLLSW

MAP4K5 (human) = MAP4K5 (human) (UniProt Q9Y4K4)
MAPK9 (human) = MAPK9 (human) (UniProt P45984)
Sequence of MAPK9 (human) (P45984 whole entry, looked up): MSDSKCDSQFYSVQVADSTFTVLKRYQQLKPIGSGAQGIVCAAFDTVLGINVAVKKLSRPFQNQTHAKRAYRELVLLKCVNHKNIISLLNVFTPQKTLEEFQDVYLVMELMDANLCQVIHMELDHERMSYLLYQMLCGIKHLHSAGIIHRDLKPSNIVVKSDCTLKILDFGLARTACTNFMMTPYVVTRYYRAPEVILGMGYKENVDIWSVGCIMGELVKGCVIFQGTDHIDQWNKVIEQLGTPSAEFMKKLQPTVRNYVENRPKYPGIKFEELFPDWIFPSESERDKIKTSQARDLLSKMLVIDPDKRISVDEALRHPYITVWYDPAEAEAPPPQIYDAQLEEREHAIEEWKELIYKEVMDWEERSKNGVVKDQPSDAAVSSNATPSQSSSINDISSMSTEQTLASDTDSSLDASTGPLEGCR

MINK1 (human) = MINK1 (human) (UniProt Q8N4C8)
MYLK4 (human) = MYLK4 (human) (UniProt Q86YV6)
NTRK3 (human) = NTRK3 (human) (UniProt Q16288)
PAK7 (human) = PAK7 (human) (UniProt Q9P286)
PKN1 (human) = PKN1 (human) (UniProt Q16512)
PRKCE (human) = PRKCE (human) (UniProt Q02156)
PRKCQ (human) = PRKCQ (human) (UniProt Q04759)
PRKD3 (human) = PRKD3 (human) (UniProt O94806)
PRKG2 (human) = PRKG2 (human) (UniProt Q13237)
PRKX (human) = PRKX (human) (UniProt P51817)
RPS6KA3 KD1 (human) = RPS6KA3 KD1 (human) (UniProt P51812)
Sequence of RPS6KA3 KD1 (human) (P51812 whole entry, looked up): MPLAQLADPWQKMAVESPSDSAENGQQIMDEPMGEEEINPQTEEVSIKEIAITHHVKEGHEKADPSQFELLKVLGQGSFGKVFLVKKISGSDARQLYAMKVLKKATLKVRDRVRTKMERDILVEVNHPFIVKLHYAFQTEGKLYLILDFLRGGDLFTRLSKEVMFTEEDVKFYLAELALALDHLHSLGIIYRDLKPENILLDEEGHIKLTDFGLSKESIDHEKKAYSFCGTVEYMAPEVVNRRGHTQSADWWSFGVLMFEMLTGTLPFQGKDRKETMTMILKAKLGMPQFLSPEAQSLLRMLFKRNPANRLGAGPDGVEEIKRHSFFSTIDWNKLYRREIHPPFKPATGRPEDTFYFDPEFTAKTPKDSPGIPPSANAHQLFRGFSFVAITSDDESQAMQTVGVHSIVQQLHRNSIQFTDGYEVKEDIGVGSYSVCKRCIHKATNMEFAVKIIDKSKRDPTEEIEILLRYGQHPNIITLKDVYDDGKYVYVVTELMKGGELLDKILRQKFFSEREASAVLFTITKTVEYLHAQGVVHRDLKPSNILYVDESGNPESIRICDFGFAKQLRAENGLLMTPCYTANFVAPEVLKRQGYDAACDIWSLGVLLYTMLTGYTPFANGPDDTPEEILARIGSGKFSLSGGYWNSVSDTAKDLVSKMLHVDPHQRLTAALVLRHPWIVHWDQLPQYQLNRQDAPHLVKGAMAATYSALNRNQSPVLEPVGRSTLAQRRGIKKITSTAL

SRC (human) = SRC (human) (UniProt P12931)
SRMS (human) = SRMS (human) (UniProt Q9H3Y6)
SRPK2 (human) = SRPK2 (human) (UniProt P78362)
STK17B (human) = STK17B (human) (UniProt O94768)
STK24 (human) = STK24 (human) (UniProt Q9Y6E0)
STK33 (human) = STK33 (human) (UniProt Q9BYT3)
TEC (human) = TEC (human) (UniProt P42680)
WEE2 (human) = WEE2 (human) (UniProt P0C1S8)
YES1 (human) = YES1 (human) (UniProt P07947)

Sequence of CDK9 (human) (P50750 whole entry, looked up): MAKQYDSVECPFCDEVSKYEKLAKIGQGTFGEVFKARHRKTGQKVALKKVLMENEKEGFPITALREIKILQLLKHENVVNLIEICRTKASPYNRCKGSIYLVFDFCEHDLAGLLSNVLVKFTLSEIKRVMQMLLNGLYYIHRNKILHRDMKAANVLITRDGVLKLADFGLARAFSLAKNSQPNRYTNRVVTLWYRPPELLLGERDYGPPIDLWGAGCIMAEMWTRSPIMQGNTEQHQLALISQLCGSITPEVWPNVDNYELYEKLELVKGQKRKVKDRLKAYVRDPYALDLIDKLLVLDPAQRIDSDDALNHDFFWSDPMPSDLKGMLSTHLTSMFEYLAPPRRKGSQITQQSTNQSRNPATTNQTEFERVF

Cc1ccc(NC(=O)c2cccc(C(C)(C)C#N)c2)cc1Nc1ccc2ncn(C)c(=O)c2c1
kinase still bound, per cent of control [1]: 3.3% | kinase still bound, per cent of control (ABL2 (human)): 12% | kinase still bound, per cent of control (AXL (human)): 75% | kinase still bound, per cent of control (BLK (human)): 1% | kinase still bound, per cent of control (BMPR1B (human)): 82% | kinase still bound, per cent of control (BRSK2 (human)): 100% | kinase still bound, per cent of control (CDK9 (human)): 100% | kinase still bound, per cent of control (CIT (human)): 0.05% | kinase still bound, per cent of control (CLK3 (human)): 100% | kinase still bound, per cent of control (CSNK1G2 (human)): 100% | kinase still bound, per cent of control (EPHA3 (human)): 5.1% | kinase still bound, per cent of control (ERBB2 (human)): 72% | kinase still bound, per cent of control (GAK (human)): 99% | kinase still bound, per cent of control (HCK (human)): 3.1% | kinase still bound, per cent of control (INSRR (human)): 100% | kinase still bound, per cent of control (IRAK3 (human)): 95% | kinase still bound, per cent of control (MAP2K2 (human)): 100% | kinase still bound, per cent of control (MAP4K4 (human)): 10% | kinase still bound, per cent of control (MAP4K5 (human)): 59% | kinase still bound, per cent of control (MAPK9 (human)): 1.8% | kinase still bound, per cent of control (MINK1 (human)): 7.2% | kinase still bound, per cent of control (MYLK4 (human)): 100% | kinase still bound, per cent of control (NTRK3 (human)): 38% | kinase still bound, per cent of control (PAK7 (human)): 100% | kinase still bound, per cent of control (PKN1 (human)): 100% | kinase still bound, per cent of control (PRKCE (human)): 100% | kinase still bound, per cent of control (PRKCQ (human)): 98% | kinase still bound, per cent of control (PRKD3 (human)): 88% | kinase still bound, per cent of control (PRKG2 (human)): 100% | kinase still bound, per cent of control (PRKX (human)): 100% | kinase still bound, per cent of control (RPS6KA3 KD1 (human)): 90% | kinase still bound, per cent of control (SRC (human)): 0.55% | kinase still bound, per cent of control (SRMS (human)): 7.4% | kinase still bound, per cent of control (SRPK2 (human)): 100% | kinase still bound, per cent of control (STK17B (human)): 100% | kinase still bound, per cent of control (STK24 (human)): 79% | kinase still bound, per cent of control (STK33 (human)): 99% | kinase still bound, per cent of control (TEC (human)): 100% | kinase still bound, per cent of control (WEE2 (human)): 100% | kinase still bound, per cent of control (YES1 (human)): 4.6%

O=C(NC1CC1)c1cccc(-c2ccc3c(NC(=O)C4CC4)n[nH]c3c2)c1
kinase still bound, per cent of control [1]: 57% | kinase still bound, per cent of control (ABL2 (human)): 100% | kinase still bound, per cent of control (AXL (human)): 54% | kinase still bound, per cent of control (BLK (human)): 100% | kinase still bound, per cent of control (BMPR1B (human)): 91% | kinase still bound, per cent of control (BRSK2 (human)): 74% | kinase still bound, per cent of control (CDK9 (human)): 93% | kinase still bound, per cent of control (CIT (human)): 89% | kinase still bound, per cent of control (CLK3 (human)): 80% | kinase still bound, per cent of control (CSNK1G2 (human)): 94% | kinase still bound, per cent of control (EPHA3 (human)): 64% | kinase still bound, per cent of control (ERBB2 (human)): 100% | kinase still bound, per cent of control (GAK (human)): 49% | kinase still bound, per cent of control (HCK (human)): 100% | kinase still bound, per cent of control (INSRR (human)): 95% | kinase still bound, per cent of control (IRAK3 (human)): 69% | kinase still bound, per cent of control (MAP2K2 (human)): 82% | kinase still bound, per cent of control (MAP4K4 (human)): 84% | kinase still bound, per cent of control (MAP4K5 (human)): 24% | kinase still bound, per cent of control (MAPK9 (human)): 50% | kinase still bound, per cent of control (MINK1 (human)): 43% | kinase still bound, per cent of control (MYLK4 (human)): 42% | kinase still bound, per cent of control (NTRK3 (human)): 44% | kinase still bound, per cent of control (PAK7 (human)): 67% | kinase still bound, per cent of control (PKN1 (human)): 100% | kinase still bound, per cent of control (PRKCE (human)): 100% | kinase still bound, per cent of control (PRKCQ (human)): 100% | kinase still bound, per cent of control (PRKD3 (human)): 100% | kinase still bound, per cent of control (PRKG2 (human)): 72% | kinase still bound, per cent of control (PRKX (human)): 100% | kinase still bound, per cent of control (RPS6KA3 KD1 (human)): 86% | kinase still bound, per cent of control (SRC (human)): 100% | kinase still bound, per cent of control (SRMS (human)): 93% | kinase still bound, per cent of control (SRPK2 (human)): 58% | kinase still bound, per cent of control (STK17B (human)): 100% | kinase still bound, per cent of control (STK24 (human)): 82% | kinase still bound, per cent of control (STK33 (human)): 100% | kinase still bound, per cent of control (TEC (human)): 95% | kinase still bound, per cent of control (WEE2 (human)): 100% | kinase still bound, per cent of control (YES1 (human)): 92%

C=CC(=O)Nc1cc(NC(=O)c2ccc(C)c(NC(=O)c3ccno3)c2)cc(C(F)(F)F)c1
kinase still bound, per cent of control [1]: 51% | kinase still bound, per cent of control (ABL2 (human)): 32% | kinase still bound, per cent of control (AXL (human)): 100% | kinase still bound, per cent of control (BLK (human)): 97% | kinase still bound, per cent of control (BMPR1B (human)): 100% | kinase still bound, per cent of control (BRSK2 (human)): 100% | kinase still bound, per cent of control (CDK9 (human)): 100% | kinase still bound, per cent of control (CIT (human)): 97% | kinase still bound, per cent of control (CLK3 (human)): 100% | kinase still bound, per cent of control (CSNK1G2 (human)): 100% | kinase still bound, per cent of control (EPHA3 (human)): 9.8% | kinase still bound, per cent of control (ERBB2 (human)): 100% | kinase still bound, per cent of control (GAK (human)): 100% | kinase still bound, per cent of control (HCK (human)): 60% | kinase still bound, per cent of control (INSRR (human)): 100% | kinase still bound, per cent of control (IRAK3 (human)): 100% | kinase still bound, per cent of control (MAP2K2 (human)): 93% | kinase still bound, per cent of control (MAP4K4 (human)): 88% | kinase still bound, per cent of control (MAP4K5 (human)): 100% | kinase still bound, per cent of control (MAPK9 (human)): 94% | kinase still bound, per cent of control (MINK1 (human)): 84% | kinase still bound, per cent of control (MYLK4 (human)): 97% | kinase still bound, per cent of control (NTRK3 (human)): 100% | kinase still bound, per cent of control (PAK7 (human)): 94% | kinase still bound, per cent of control (PKN1 (human)): 96% | kinase still bound, per cent of control (PRKCE (human)): 100% | kinase still bound, per cent of control (PRKCQ (human)): 100% | kinase still bound, per cent of control (PRKD3 (human)): 100% | kinase still bound, per cent of control (PRKG2 (human)): 94% | kinase still bound, per cent of control (PRKX (human)): 84% | kinase still bound, per cent of control (RPS6KA3 KD1 (human)): 96% | kinase still bound, per cent of control (SRC (human)): 49% | kinase still bound, per cent of control (SRMS (human)): 77% | kinase still bound, per cent of control (SRPK2 (human)): 89% | kinase still bound, per cent of control (STK17B (human)): 89% | kinase still bound, per cent of control (STK24 (human)): 100% | kinase still bound, per cent of control (STK33 (human)): 100% | kinase still bound, per cent of control (TEC (human)): 100% | kinase still bound, per cent of control (WEE2 (human)): 84% | kinase still bound, per cent of control (YES1 (human)): 46%
